# Experimental data reported in article PMC8371461 (Frontiers in Pharmacology, 2021).
# Legend:
# Test in all cases: kinome scan
# Format in all cases: binding
# EPHA7 = molecular target: T1, EPHA7 (Homo sapiens, UniProt Q15375); conditions: 10 µM
# T1 construct: purchased DiscoverX (KINOMEscan)
# MAP3K1 = molecular target: T2, MAP3K1 (Homo sapiens, UniProt Q13233); conditions: 10 µM
# T2 construct: purchased DiscoverX (KINOMEscan)
# OSR1 = molecular target: T3, OSR1 (Homo sapiens, UniProt O95747); conditions: 10 µM
# T3 construct: purchased DiscoverX (KINOMEscan)
# SRPK3 = molecular target: T4, SRPK3 (Homo sapiens, UniProt Q9UPE1); conditions: 10 µM
# T4 construct: purchased DiscoverX (KINOMEscan)
# LTK = molecular target: T5, LTK (Homo sapiens, UniProt P29376); conditions: 10 µM
# T5 construct: purchased DiscoverX (KINOMEscan)
# KIT(V559DT670I) = molecular target: T6, KIT(V559DT670I) (Homo sapiens, UniProt P10721, T670I/V559D); conditions: 10 µM
# T6 construct: purchased DiscoverX (KINOMEscan)
# TSSK1B = molecular target: T7, TSSK1B (Homo sapiens, UniProt Q9BXA7); conditions: 10 µM
# T7 construct: purchased DiscoverX (KINOMEscan)
# FGFR3 = molecular target: T8, FGFR3 (Homo sapiens, UniProt P22607); conditions: 10 µM
# T8 construct: purchased DiscoverX (KINOMEscan)
# CIT = molecular target: T9, CIT (Homo sapiens, UniProt O14578); conditions: 10 µM
# T9 construct: purchased DiscoverX (KINOMEscan)
# MAP3K15 = molecular target: T10, MAP3K15 (Homo sapiens, UniProt Q6ZN16); conditions: 10 µM
# T10 construct: purchased DiscoverX (KINOMEscan)
# EGFR(E746-A750del) = molecular target: T11, EGFR(E746-A750del) (Homo sapiens, UniProt P00533, DEL746-750); conditions: 10 µM
# T11 construct: purchased DiscoverX (KINOMEscan)
# MET(M1250T) = molecular target: T12, MET(M1250T) (Homo sapiens, UniProt P08581, M1250T); conditions: 10 µM
# T12 construct: purchased DiscoverX (KINOMEscan)
# MUSK = molecular target: T13, MUSK (Homo sapiens, UniProt O15146); conditions: 10 µM
# T13 construct: purchased DiscoverX (KINOMEscan)
# MET = molecular target: T14, MET (Homo sapiens, UniProt P08581); conditions: 10 µM
# T14 construct: purchased DiscoverX (KINOMEscan)
# PKAC-beta = molecular target: T15, PKAC-beta (Homo sapiens, UniProt P22694); conditions: 10 µM
# T15 construct: purchased DiscoverX (KINOMEscan)
# ROCK2 = molecular target: T16, ROCK2 (Homo sapiens, UniProt O75116); conditions: 10 µM
# T16 construct: purchased DiscoverX (KINOMEscan)
# MYLK = molecular target: T17, MYLK (Homo sapiens, UniProt Q15746); conditions: 10 µM
# T17 construct: purchased DiscoverX (KINOMEscan)
# LIMK2 = molecular target: T18, LIMK2 (Homo sapiens, UniProt P53671); conditions: 10 µM
# T18 construct: purchased DiscoverX (KINOMEscan)
# [1] = molecular target: T19, ABL1(H396P)-phosphorylated (Homo sapiens, UniProt P00519, H396P); conditions: 10 µM
# T19 construct: purchased DiscoverX (KINOMEscan)
# BRK = molecular target: T20, BRK (Homo sapiens, UniProt Q13882); conditions: 10 µM
# T20 construct: purchased DiscoverX (KINOMEscan)
# STK35 = molecular target: T21, STK35 (Homo sapiens, UniProt Q8TDR2); conditions: 10 µM
# T21 construct: purchased DiscoverX (KINOMEscan)
# ACVRL1 = molecular target: T22, ACVRL1 (Homo sapiens, UniProt P37023); conditions: 10 µM
# T22 construct: purchased DiscoverX (KINOMEscan)
# TYRO3 = molecular target: T23, TYRO3 (Homo sapiens, UniProt Q06418); conditions: 10 µM
# T23 construct: purchased DiscoverX (KINOMEscan)
# PIK3CG = molecular target: T24, PIK3CG (Homo sapiens, UniProt P48736)
# T24 construct: purchased DiscoverX (KINOMEscan)
# [2] = molecular target: T25, ABL1(T315I)-phosphorylated (Homo sapiens, UniProt P00519, T315I); conditions: 10 µM
# T25 construct: purchased DiscoverX (KINOMEscan)
# PKN1 = molecular target: T26, PKN1 (Homo sapiens, UniProt Q16512); conditions: 10 µM
# T26 construct: purchased DiscoverX (KINOMEscan)
# NEK11 = molecular target: T27, NEK11 (Homo sapiens, UniProt Q8NG66); conditions: 10 µM
# T27 construct: purchased DiscoverX (KINOMEscan)
# PRP4 = molecular target: T28, PRP4 (Homo sapiens, UniProt Q13523); conditions: 10 µM
# T28 construct: purchased DiscoverX (KINOMEscan)
# Description: (§1) The kinome scan analysis was performed using the DiscoverX platform (www.discoverx.com). Briefly, T7 kinase-tagged phage strains are grown in parallel in 24-well or 96-well blocks in a BL21-derived E. coli host for 90 min until lysis. Lysates are centrifuged at 6,000 x g and filtered with a 0.2 µm filter to remove cell debris. Streptavidin-coated magnetic beads are treated with biotinylated kinase ligands for 30 min at room temperature to generate the affinity resin. Bound beads are blocked with excess biotin and washed with blocking buffer (SeaBlock (Pierce), 1% BSA, 0.05% Tween 20, and 1 mM DTT) to remove unbound ligand and reduce nonspecific phage binding. […] The final concentration of test compound is 10 µM. Assay plates are incubated at room temperature with shaking for 1 h. Affinity beads are treated four times with washing buffer (1X PBS, 0.05% Tween 20, and 1 mM DTT) to remove unbound phage. […] Q RT PCR is used to measure the amount of phage in each eluate (which is proportional to the amount of kinase bound). Data is presented as the percentage of kinase bound by 10 µM of the ligand compared to the DMSO only as a control.
# (§2) Hits are identified by an ultra-sensitive quantitative PCR detecting the specific DNA tag linked to each kinase (Supplementary Figure S2). The drug is used at a concentration of 10 µM and results are expressed as the percentage of signal (kinase PCR detection) with respect to DMSO control conditions. Thirteen hits were identified, with a signal reduction ranging from 0 to 27% (Table 3). Full raw data are presented in Supplementary Table S4. Interactions between 0 and 20% of reduction were considered to be the most significant ones. […] A sub-micromolar affinity (Kd<1 µM) was only seen with two PIKs (PIP4K2C, PI4KB) and GAK (Table 4). Inhibitions curves from these compounds are shown in Supplementary Figure S3.
# PFCDPK1(P.falciparum) = molecular target: T29, PFCDPK1(P.falciparum) (Plasmodium falciparum, UniProt P62344); conditions: 10 µM
# T29 construct: purchased DiscoverX (KINOMEscan)
# Description: as §1, §2
# PFPK5(P.falciparum) = molecular target: T30, PFPK5(P.falciparum) (Plasmodium falciparum, UniProt P61075); conditions: 10 µM
# T30 construct: purchased DiscoverX (KINOMEscan)
# Description: as §1, §2
# CDC2L5 = molecular target: T31, CDC2L5 (Homo sapiens, UniProt Q14004); conditions: 10 µM
# T31 construct: purchased DiscoverX (KINOMEscan)
# Description: as §1, §2
# FGFR4 = molecular target: T32, FGFR4 (Homo sapiens, UniProt P22455); conditions: 10 µM
# T32 construct: purchased DiscoverX (KINOMEscan)
# NDR1 = molecular target: T33, NDR1 (Homo sapiens, UniProt Q15208); conditions: 10 µM
# T33 construct: purchased DiscoverX (KINOMEscan)
# T24 sequence (P48736 whole entry): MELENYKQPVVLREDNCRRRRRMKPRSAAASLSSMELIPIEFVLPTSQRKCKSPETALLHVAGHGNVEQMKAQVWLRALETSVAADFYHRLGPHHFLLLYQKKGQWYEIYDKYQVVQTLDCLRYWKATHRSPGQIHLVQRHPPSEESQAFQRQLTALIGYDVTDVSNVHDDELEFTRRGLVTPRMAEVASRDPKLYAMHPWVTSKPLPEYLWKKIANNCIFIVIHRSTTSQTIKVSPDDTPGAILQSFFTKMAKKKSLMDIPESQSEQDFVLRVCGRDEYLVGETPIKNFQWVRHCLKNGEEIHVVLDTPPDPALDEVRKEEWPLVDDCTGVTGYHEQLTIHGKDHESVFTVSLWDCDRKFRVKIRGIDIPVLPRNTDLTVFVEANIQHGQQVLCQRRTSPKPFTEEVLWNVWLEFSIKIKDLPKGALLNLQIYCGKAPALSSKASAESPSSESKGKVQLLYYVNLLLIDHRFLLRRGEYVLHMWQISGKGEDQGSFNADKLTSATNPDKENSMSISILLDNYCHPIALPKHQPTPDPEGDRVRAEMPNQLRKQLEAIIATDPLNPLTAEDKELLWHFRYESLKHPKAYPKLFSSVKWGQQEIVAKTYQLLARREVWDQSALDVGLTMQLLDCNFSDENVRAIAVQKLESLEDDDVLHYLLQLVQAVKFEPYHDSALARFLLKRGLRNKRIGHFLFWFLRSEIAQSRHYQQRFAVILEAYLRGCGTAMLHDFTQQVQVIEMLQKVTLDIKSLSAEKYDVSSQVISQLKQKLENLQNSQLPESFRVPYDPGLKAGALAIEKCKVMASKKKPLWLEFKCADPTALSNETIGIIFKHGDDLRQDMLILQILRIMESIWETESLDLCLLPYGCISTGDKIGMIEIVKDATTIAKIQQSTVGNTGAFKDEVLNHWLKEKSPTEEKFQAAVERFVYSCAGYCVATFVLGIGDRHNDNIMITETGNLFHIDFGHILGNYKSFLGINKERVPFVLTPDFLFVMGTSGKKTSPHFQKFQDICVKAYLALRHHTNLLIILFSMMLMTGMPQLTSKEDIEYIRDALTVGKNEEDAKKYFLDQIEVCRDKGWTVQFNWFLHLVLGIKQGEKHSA
# T1 sequence (Q15375 28-998): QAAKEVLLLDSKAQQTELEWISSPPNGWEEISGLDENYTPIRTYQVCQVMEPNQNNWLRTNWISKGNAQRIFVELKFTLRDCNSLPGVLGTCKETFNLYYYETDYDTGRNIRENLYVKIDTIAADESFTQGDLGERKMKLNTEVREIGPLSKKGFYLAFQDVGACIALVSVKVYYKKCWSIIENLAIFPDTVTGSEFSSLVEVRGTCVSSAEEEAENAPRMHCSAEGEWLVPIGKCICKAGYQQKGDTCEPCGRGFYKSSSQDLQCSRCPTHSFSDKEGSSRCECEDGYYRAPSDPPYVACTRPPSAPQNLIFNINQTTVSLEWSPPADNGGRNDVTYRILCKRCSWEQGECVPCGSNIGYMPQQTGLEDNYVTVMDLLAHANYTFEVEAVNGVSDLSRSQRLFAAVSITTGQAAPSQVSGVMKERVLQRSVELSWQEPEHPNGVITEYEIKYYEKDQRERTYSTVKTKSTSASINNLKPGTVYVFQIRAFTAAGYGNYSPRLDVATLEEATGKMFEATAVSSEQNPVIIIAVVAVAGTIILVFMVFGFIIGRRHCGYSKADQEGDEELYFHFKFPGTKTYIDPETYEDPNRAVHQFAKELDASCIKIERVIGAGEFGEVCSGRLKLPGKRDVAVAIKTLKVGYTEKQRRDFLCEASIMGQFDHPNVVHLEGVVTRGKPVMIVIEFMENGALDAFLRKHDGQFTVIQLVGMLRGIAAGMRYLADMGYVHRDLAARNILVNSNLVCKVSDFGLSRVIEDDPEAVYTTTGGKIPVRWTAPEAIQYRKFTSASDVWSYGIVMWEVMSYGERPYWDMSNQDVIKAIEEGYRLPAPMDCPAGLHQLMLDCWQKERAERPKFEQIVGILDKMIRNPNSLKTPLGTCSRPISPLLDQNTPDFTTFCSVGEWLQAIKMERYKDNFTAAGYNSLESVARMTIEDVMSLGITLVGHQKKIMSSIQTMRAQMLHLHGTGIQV
# T30 sequence (P61075 whole entry): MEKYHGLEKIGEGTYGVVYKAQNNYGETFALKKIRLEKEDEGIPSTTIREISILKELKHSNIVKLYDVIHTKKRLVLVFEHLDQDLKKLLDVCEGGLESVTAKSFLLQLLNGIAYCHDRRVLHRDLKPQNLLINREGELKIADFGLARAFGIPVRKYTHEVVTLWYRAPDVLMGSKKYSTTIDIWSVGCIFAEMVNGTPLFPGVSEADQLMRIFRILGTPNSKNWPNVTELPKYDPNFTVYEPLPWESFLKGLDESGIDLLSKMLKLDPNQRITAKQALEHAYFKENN
# T17 sequence (Q15746 whole entry): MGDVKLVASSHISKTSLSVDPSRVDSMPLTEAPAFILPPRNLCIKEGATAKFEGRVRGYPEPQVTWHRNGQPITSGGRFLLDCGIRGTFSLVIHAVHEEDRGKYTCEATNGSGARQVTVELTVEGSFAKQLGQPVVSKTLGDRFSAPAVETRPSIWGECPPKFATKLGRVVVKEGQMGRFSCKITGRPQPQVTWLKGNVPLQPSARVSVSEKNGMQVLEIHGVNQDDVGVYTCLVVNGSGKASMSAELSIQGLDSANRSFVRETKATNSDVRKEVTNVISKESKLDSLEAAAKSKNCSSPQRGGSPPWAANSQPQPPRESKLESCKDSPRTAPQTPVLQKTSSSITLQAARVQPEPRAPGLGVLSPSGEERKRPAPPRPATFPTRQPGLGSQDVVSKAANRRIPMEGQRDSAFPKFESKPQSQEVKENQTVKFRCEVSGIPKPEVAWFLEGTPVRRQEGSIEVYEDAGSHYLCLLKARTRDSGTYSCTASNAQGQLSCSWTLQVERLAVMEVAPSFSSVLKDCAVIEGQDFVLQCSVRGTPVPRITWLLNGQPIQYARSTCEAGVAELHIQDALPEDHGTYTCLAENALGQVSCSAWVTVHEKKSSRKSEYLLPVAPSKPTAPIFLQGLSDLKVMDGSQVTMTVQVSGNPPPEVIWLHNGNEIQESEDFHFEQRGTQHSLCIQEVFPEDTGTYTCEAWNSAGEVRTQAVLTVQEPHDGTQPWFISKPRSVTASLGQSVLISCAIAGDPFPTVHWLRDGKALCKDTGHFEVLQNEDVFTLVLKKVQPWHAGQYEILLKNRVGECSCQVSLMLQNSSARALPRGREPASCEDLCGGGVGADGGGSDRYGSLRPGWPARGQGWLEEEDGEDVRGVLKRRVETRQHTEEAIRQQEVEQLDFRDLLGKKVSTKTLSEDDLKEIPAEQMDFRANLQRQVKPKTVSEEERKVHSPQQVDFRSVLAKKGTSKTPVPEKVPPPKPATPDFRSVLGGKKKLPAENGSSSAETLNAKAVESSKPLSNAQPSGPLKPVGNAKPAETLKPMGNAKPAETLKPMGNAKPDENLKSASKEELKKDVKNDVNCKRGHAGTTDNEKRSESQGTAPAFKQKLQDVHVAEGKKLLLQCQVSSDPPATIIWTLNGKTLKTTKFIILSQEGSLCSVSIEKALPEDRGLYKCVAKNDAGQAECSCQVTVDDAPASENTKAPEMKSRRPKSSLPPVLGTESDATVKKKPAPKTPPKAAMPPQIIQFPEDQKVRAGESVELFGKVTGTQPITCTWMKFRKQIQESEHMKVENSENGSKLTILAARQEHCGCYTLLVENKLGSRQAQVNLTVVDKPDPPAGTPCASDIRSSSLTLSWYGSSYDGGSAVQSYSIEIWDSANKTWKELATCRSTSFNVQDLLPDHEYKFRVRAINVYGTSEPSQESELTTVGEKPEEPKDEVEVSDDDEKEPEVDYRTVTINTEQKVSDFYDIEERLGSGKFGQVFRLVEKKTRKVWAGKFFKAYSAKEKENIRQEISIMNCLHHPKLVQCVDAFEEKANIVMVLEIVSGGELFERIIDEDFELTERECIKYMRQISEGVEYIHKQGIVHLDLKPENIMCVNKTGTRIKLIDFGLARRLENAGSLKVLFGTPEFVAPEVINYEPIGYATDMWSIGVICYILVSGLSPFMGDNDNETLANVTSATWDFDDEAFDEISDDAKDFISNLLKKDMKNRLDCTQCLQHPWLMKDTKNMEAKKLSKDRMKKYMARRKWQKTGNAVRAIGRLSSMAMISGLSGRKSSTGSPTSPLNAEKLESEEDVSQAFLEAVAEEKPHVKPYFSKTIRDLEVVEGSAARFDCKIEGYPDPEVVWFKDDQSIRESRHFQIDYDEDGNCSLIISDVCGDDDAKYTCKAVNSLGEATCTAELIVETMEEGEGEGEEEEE
# T4 sequence (Q9UPE1 whole entry): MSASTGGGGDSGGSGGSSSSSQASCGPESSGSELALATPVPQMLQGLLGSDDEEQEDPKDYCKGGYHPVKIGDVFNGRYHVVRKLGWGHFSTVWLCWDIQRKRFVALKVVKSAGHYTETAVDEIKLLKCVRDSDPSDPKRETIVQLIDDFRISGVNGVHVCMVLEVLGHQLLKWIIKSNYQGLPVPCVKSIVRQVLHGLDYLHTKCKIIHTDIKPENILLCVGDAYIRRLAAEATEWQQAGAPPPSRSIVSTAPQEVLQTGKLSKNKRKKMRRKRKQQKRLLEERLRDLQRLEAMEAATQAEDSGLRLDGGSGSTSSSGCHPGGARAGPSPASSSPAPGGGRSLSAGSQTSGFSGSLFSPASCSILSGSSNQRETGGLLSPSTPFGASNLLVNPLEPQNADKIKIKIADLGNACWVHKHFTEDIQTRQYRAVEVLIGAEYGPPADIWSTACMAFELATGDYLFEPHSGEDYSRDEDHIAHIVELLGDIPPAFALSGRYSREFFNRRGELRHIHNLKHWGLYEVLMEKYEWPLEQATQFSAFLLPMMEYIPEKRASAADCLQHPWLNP
smiles,measurement,setting,value
"Nc1ccc(N=Nc2ccccc2)c(N)n1 [phenazopyridine, 2,6-diamino-3-(phenylazo)pyridine]",kinase inhibition,EPHA7,91
same,kinase inhibition,MAP3K1,100
same,kinase inhibition,OSR1,100
same,kinase inhibition,SRPK3,94
same,kinase inhibition,LTK,96
same,kinase inhibition,KIT(V559DT670I),71
same,kinase inhibition,TSSK1B,87
same,kinase inhibition,FGFR3,91
same,kinase inhibition,CIT,72
same,kinase inhibition,MAP3K15,94
same,remaining binding (% of control),EGFR(E746-A750del),69
same,kinase inhibition,MET(M1250T),83
same,kinase inhibition,MUSK,91
same,kinase inhibition,MET,100
same,kinase inhibition,PKAC-beta,95
same,kinase inhibition,ROCK2,89
same,kinase inhibition,MYLK,100
same,kinase inhibition,LIMK2,96
same,kinase inhibition,[1],77
same,kinase inhibition,BRK,100
same,kinase inhibition,STK35,93
same,kinase inhibition,ACVRL1,71
same,kinase inhibition,TYRO3,94
same,percent of control (remaining binding),PIK3CG; 10 µM,27
same,remaining binding at 10 µM,PIK3CG; read-out: Kinome scan (% of control at 10 µM),27%
same,kinase inhibition,[2],100
same,kinase inhibition,PKN1,100
same,kinase inhibition,NEK11,100
same,"kinase bound, % of DMSO control",PRP4,100
same,kinase inhibition,PFCDPK1(P.falciparum),100
same,kinase inhibition,PFPK5(P.falciparum),89
same,kinase inhibition,CDC2L5,100
same,kinase inhibition,FGFR4,91
same,kinase inhibition,NDR1,100
